Where a SMILES comes first, the peptide text is derived from it. [ ]: non-standard residue; d: D form. Trp(4-Cl)(βS-Me) = C[C@@H](c1c[nH]c2cccc(Cl)c12)[C@H](N)C(=O)O; Trp(βS-Me,4-F) = C[C@@H](c1c[nH]c2cccc(F)c12)[C@H](N)C(=O)O; Bip(4'-COOH) = N[C@@H](Cc1ccc(-c2ccc(C(=O)O)cc2)cc1)C(=O)O; Phe(4-COOH) = N[C@@H](Cc1ccc(C(=O)O)cc1)C(=O)O; Pro(4R-NH2) = N[C@H]1CN[C@H](C(=O)O)C1; 1Nal = N[C@@H](Cc1cccc2ccccc12)C(=O)O; AEF = NCCOc1ccc(C[C@H](N)C(=O)O)cc1; hTyr = N[C@@H](CCc1ccc(O)cc1)C(=O)O; hPhe = N[C@@H](CCc1ccccc1)C(=O)O; 4Pal = N[C@@H](Cc1ccncc1)C(=O)O; Dap(Me2) = CN(C)C[C@H](N)C(=O)O; dDab = NCC[C@@H](N)C(=O)O; hSer = N[C@@H](CCO)C(=O)O; dNMeA = CN[C@H](C)C(=O)O; Dab = NCC[C@H](N)C(=O)O; Dap = NC[C@H](N)C(=O)O
target: T1, Recombinant human IL-1β (Homo sapiens, UniProt P01584); assay: IL-6 assay in MRC5 cells: inhibition of IL-1β induced IL-6 secretion (AlphaLISA); type: cell-based; conditions: inhibition of IL-1β induced IL-6 secretion in MRC5 cells; read-out: MRC5 IC50
T1 construct: purchased BioLegend 579404
T1 sequence (P01584 117-269): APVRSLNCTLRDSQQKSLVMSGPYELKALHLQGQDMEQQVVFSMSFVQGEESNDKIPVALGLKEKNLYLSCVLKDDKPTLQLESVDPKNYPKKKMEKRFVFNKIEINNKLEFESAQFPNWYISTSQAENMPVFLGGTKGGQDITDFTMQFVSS
Outline: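 IL-1β at 2×EC80 in seeding medium (EMEM, 0.025% BSA) preincubated 1 h at ambient temperature with compound, then 3000 MRC5 cells/well added and incubated overnight at 37 °C, 5% CO2. IL-6 in conditioned medium quantified by AlphaLISA; IC50 from 4-parameter logistic fit.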

| IC50 | SMILES |
| --- | --- |
| 0.23 nM | CC(=O)NCCOc1ccc(C[C@@H]2NC(=O)[C@H](CCc3ccc(O)cc3)NC(=O)[C@@H](C)NC(=O)[C@H](CCN)NC(=O)[C@H](Cc3c[nH]c4ccccc34)NC(=O)[C@H](Cc3ccc(-c4ccc(C(=O)O)cc4)cc3)NC(=O)CNC(=O)[C@@H](C)N(C)C(=O)[C@H](CC(=O)O)NC(=O)[C@H]([C@@H](C)c3c[nH]c4cccc(Cl)c34)NC(=O)[C@@H]3C[C@@H](N)CN3C(=O)CNC(=O)[C@H](Cc3ccc(C(=O)O)cc3)NC(=O)[C@H](Cc3c[nH]c4ccccc34)NC2=O)cc1 [Example 143] (cyclo([AEF](Ac)W[Phe(4-COOH)]G[Pro(4R-NH2)][Trp(4-Cl)(βS-Me)]D[dNMeA]G[Bip(4'-COOH)]W[Dab][dA][hTyr])) |
| 0.0749 nM | CC(=O)NCCOc1ccc(C[C@@H]2NC(=O)[C@H](CCc3ccccc3)NC(=O)[C@@H](C)NC(=O)[C@H](CN)NC(=O)[C@H](Cc3c[nH]c4ccccc34)NC(=O)[C@H](Cc3ccc(-c4ccc(C(=O)O)cc4)cc3)NC(=O)CNC(=O)[C@@H](C)N(C)C(=O)[C@H](CC(=O)O)NC(=O)[C@H]([C@@H](C)c3c[nH]c4cccc(Cl)c34)NC(=O)[C@@H]3C[C@@H](N)CN3C(=O)CNC(=O)[C@H](Cc3ccc(C(=O)O)cc3)NC(=O)[C@H](Cc3c[nH]c4ccccc34)NC2=O)cc1 [Example 144] (cyclo([AEF](Ac)W[Phe(4-COOH)]G[Pro(4R-NH2)][Trp(4-Cl)(βS-Me)]D[dNMeA]G[Bip(4'-COOH)]W[Dap][dA][hPhe])) |
| 0.0748 nM | CC(=O)NCCOc1ccc(C[C@@H]2NC(=O)[C@H](CCc3ccc(O)cc3)NC(=O)[C@@H](C)NC(=O)[C@H](CN)NC(=O)[C@H](Cc3c[nH]c4ccccc34)NC(=O)[C@H](Cc3ccc(-c4ccc(C(=O)O)cc4)cc3)NC(=O)CNC(=O)[C@@H](C)N(C)C(=O)[C@H](CC(=O)O)NC(=O)[C@H]([C@@H](C)c3c[nH]c4cccc(Cl)c34)NC(=O)[C@@H]3C[C@@H](N)CN3C(=O)CNC(=O)[C@H](Cc3ccc(C(=O)O)cc3)NC(=O)[C@H](Cc3c[nH]c4ccccc34)NC2=O)cc1 [Example 145] (cyclo([AEF](Ac)W[Phe(4-COOH)]G[Pro(4R-NH2)][Trp(4-Cl)(βS-Me)]D[dNMeA]G[Bip(4'-COOH)]W[Dap][dA][hTyr])) |
| 0.114 nM | CC(=O)NCCOc1ccc(C[C@@H]2NC(=O)[C@H](CCc3ccc(O)cc3)NC(=O)[C@@H](C)NC(=O)[C@H](CN(C)C)NC(=O)[C@H](Cc3c[nH]c4ccccc34)NC(=O)[C@H](Cc3ccc(-c4ccc(C(=O)O)cc4)cc3)NC(=O)CNC(=O)[C@@H](C)N(C)C(=O)[C@H](CC(=O)O)NC(=O)[C@H]([C@@H](C)c3c[nH]c4cccc(Cl)c34)NC(=O)[C@@H]3C[C@@H](N)CN3C(=O)CNC(=O)[C@H](Cc3ccc(C(=O)O)cc3)NC(=O)[C@H](Cc3c[nH]c4ccccc34)NC2=O)cc1 [Example 146] (cyclo([AEF](Ac)W[Phe(4-COOH)]G[Pro(4R-NH2)][Trp(4-Cl)(βS-Me)]D[dNMeA]G[Bip(4'-COOH)]W[Dap(Me2)][dA][hTyr])) |
| 0.0926 nM | COCC[C@@H]1NC(=O)[C@H](Cc2c[nH]c3ccccc23)NC(=O)[C@H](Cc2ccc(-c3ccc(C(=O)O)cc3)cc2)NC(=O)CNC(=O)[C@@H](C)N(C)C(=O)[C@H](CC(=O)O)NC(=O)[C@H]([C@@H](C)c2c[nH]c3cccc(Cl)c23)NC(=O)[C@@H]2C[C@@H](N)CN2C(=O)CNC(=O)[C@H](Cc2ccc(C(=O)O)cc2)NC(=O)[C@H](Cc2c[nH]c3ccccc23)NC(=O)[C@H](Cc2ccc(OCCNC(C)=O)cc2)NC(=O)[C@H](CCc2ccc(O)cc2)NC(=O)[C@@H](C)NC1=O [Example 147] (cyclo([AEF](Ac)W[Phe(4-COOH)]G[Pro(4R-NH2)][Trp(4-Cl)(βS-Me)]D[dNMeA]G[Bip(4'-COOH)]W[hSer](Me)[dA][hTyr])) |
| 0.0483 nM | CC(=O)NCCOc1ccc(C[C@@H]2NC(=O)[C@H](CCc3ccc(O)cc3)NC(=O)[C@@H](C)NC(=O)[C@H](CC(C)C)NC(=O)[C@H](Cc3c[nH]c4ccccc34)NC(=O)[C@H](Cc3ccc(-c4ccc(C(=O)O)cc4)cc3)NC(=O)CNC(=O)[C@@H](C)N(C)C(=O)[C@H](CC(=O)O)NC(=O)[C@H]([C@@H](C)c3c[nH]c4cccc(Cl)c34)NC(=O)[C@@H]3C[C@@H](N)CN3C(=O)CNC(=O)[C@H](Cc3ccc(C(=O)O)cc3)NC(=O)[C@H](Cc3c[nH]c4ccccc34)NC2=O)cc1 [Example 148] (cyclo([AEF](Ac)W[Phe(4-COOH)]G[Pro(4R-NH2)][Trp(4-Cl)(βS-Me)]D[dNMeA]G[Bip(4'-COOH)]WL[dA][hTyr])) |
| 0.81 nM | CC(=O)NCCOc1ccc(C[C@@H]2NC(=O)[C@H](CCc3ccc(O)cc3)NC(=O)[C@@H](CCN)NC(=O)[C@H](CC(C)C)NC(=O)[C@H](Cc3c[nH]c4ccccc34)NC(=O)[C@H](Cc3ccc(-c4ccc(C(=O)O)cc4)cc3)NC(=O)CNC(=O)[C@@H](C)N(C)C(=O)[C@H](CC(=O)O)NC(=O)[C@H]([C@@H](C)c3c[nH]c4cccc(Cl)c34)NC(=O)[C@@H]3C[C@@H](N)CN3C(=O)CNC(=O)[C@H](Cc3ccc(C(=O)O)cc3)NC(=O)[C@H](Cc3c[nH]c4ccccc34)NC2=O)cc1 [Example 149] (cyclo([AEF](Ac)W[Phe(4-COOH)]G[Pro(4R-NH2)][Trp(4-Cl)(βS-Me)]D[dNMeA]G[Bip(4'-COOH)]WL[dDab][hTyr])) |
| 0.0633 nM | CC(=O)NCCOc1ccc(C[C@@H]2NC(=O)[C@H](CCc3ccccc3)NC(=O)[C@@H](C)NC(=O)[C@H](CO)NC(=O)[C@H](Cc3c[nH]c4ccccc34)NC(=O)[C@H](Cc3ccc(-c4ccc(C(=O)O)cc4)cc3)NC(=O)CNC(=O)[C@@H](C)N(C)C(=O)[C@H](CC(=O)O)NC(=O)[C@H]([C@@H](C)c3c[nH]c4cccc(Cl)c34)NC(=O)[C@@H]3C[C@@H](N)CN3C(=O)CNC(=O)[C@H](Cc3ccc(C(=O)O)cc3)NC(=O)[C@H](Cc3c[nH]c4ccccc34)NC2=O)cc1 [Example 150] (cyclo([AEF](Ac)W[Phe(4-COOH)]G[Pro(4R-NH2)][Trp(4-Cl)(βS-Me)]D[dNMeA]G[Bip(4'-COOH)]WS[dA][hPhe])) |
| 0.0759 nM | CC(=O)NCCOc1ccc(C[C@@H]2NC(=O)[C@H](CCc3ccc(O)cc3)NC(=O)[C@@H](C)NC(=O)[C@H](CO)NC(=O)[C@H](Cc3c[nH]c4ccccc34)NC(=O)[C@H](Cc3ccc(-c4ccc(C(=O)O)cc4)cc3)NC(=O)CNC(=O)[C@@H](C)N(C)C(=O)[C@H](CC(=O)O)NC(=O)[C@H]([C@@H](C)c3c[nH]c4cccc(Cl)c34)NC(=O)[C@@H]3C[C@@H](N)CN3C(=O)CNC(=O)[C@H](Cc3ccc(C(=O)O)cc3)NC(=O)[C@H](Cc3c[nH]c4ccccc34)NC2=O)cc1 [Example 151] (cyclo([AEF](Ac)W[Phe(4-COOH)]G[Pro(4R-NH2)][Trp(4-Cl)(βS-Me)]D[dNMeA]G[Bip(4'-COOH)]WS[dA][hTyr])) |
| 0.06 nM | COC[C@@H]1NC(=O)[C@H](Cc2c[nH]c3ccccc23)NC(=O)[C@H](Cc2ccc(-c3ccc(C(=O)O)cc3)cc2)NC(=O)CNC(=O)[C@@H](C)N(C)C(=O)[C@H](CC(=O)O)NC(=O)[C@H]([C@@H](C)c2c[nH]c3cccc(Cl)c23)NC(=O)[C@@H]2C[C@@H](N)CN2C(=O)CNC(=O)[C@H](Cc2ccc(C(=O)O)cc2)NC(=O)[C@H](Cc2c[nH]c3ccccc23)NC(=O)[C@H](Cc2ccc(OCCNC(C)=O)cc2)NC(=O)[C@H](CCc2ccccc2)NC(=O)[C@@H](C)NC1=O [Example 152] (cyclo([AEF](Ac)W[Phe(4-COOH)]G[Pro(4R-NH2)][Trp(4-Cl)(βS-Me)]D[dNMeA]G[Bip(4'-COOH)]WS(Me)[dA][hPhe])) |
| 0.088 nM | COC[C@@H]1NC(=O)[C@H](Cc2c[nH]c3ccccc23)NC(=O)[C@H](Cc2ccc(-c3ccc(C(=O)O)cc3)cc2)NC(=O)CNC(=O)[C@@H](C)N(C)C(=O)[C@H](CC(=O)O)NC(=O)[C@H]([C@@H](C)c2c[nH]c3cccc(Cl)c23)NC(=O)[C@@H]2C[C@@H](N)CN2C(=O)CNC(=O)[C@H](Cc2ccc(C(=O)O)cc2)NC(=O)[C@H](Cc2c[nH]c3ccccc23)NC(=O)[C@H](Cc2ccc(OCCNC(C)=O)cc2)NC(=O)[C@H](CCc2ccc(O)cc2)NC(=O)[C@@H](C)NC1=O [Example 153] (cyclo([AEF](Ac)W[Phe(4-COOH)]G[Pro(4R-NH2)][Trp(4-Cl)(βS-Me)]D[dNMeA]G[Bip(4'-COOH)]WS(Me)[dA][hTyr])) |
| 0.196 nM | CC(=O)NCCOc1ccc(C[C@@H]2NC(=O)[C@H](CCc3ccc(O)cc3)NC(=O)[C@@H](C)NC(=O)[C@H](CCN)NC(=O)[C@H](Cc3cccc4ccccc34)NC(=O)[C@H](Cc3ccc(-c4ccc(C(=O)O)cc4)cc3)NC(=O)CNC(=O)[C@@H](C)N(C)C(=O)[C@H](CC(=O)O)NC(=O)[C@H]([C@@H](C)c3c[nH]c4cccc(F)c34)NC(=O)[C@@H]3C[C@@H](N)CN3C(=O)CNC(=O)[C@H](Cc3ccc(C(=O)O)cc3)NC(=O)[C@H](Cc3c[nH]c4ccccc34)NC2=O)cc1 [Example 154] (cyclo([AEF](Ac)W[Phe(4-COOH)]G[Pro(4R-NH2)][Trp(βS-Me,4-F)]D[dNMeA]G[Bip(4'-COOH)][1Nal][Dab][dA][hTyr])) |
| 0.22 nM | CC(=O)NCCOc1ccc(C[C@@H]2NC(=O)[C@H](CCc3ccc(O)cc3)NC(=O)[C@@H](C)NC(=O)[C@H](CO)NC(=O)[C@H](Cc3cccc4ccccc34)NC(=O)[C@H](Cc3ccc(-c4ccc(C(=O)O)cc4)cc3)NC(=O)CNC(=O)[C@@H](C)N(C)C(=O)[C@H](CC(=O)O)NC(=O)[C@H]([C@@H](C)c3c[nH]c4cccc(F)c34)NC(=O)[C@@H]3C[C@@H](N)CN3C(=O)CNC(=O)[C@H](Cc3ccc(C(=O)O)cc3)NC(=O)[C@H](Cc3c[nH]c4ccccc34)NC2=O)cc1 [Example 155] (cyclo([AEF](Ac)W[Phe(4-COOH)]G[Pro(4R-NH2)][Trp(βS-Me,4-F)]D[dNMeA]G[Bip(4'-COOH)][1Nal]S[dA][hTyr])) |
| 0.948 nM | CC(=O)NCCOc1ccc(C[C@@H]2NC(=O)[C@H](CCc3ccc(O)cc3)NC(=O)[C@@H](C)NC(=O)[C@H](CC(C)C)NC(=O)[C@H](Cc3ccncc3)NC(=O)[C@H](Cc3ccc(-c4ccc(C(=O)O)cc4)cc3)NC(=O)CNC(=O)[C@@H](C)N(C)C(=O)[C@H](CC(=O)O)NC(=O)[C@H]([C@@H](C)c3c[nH]c4cccc(F)c34)NC(=O)[C@@H]3C[C@@H](N)CN3C(=O)CNC(=O)[C@H](Cc3ccc(C(=O)O)cc3)NC(=O)[C@H](Cc3c[nH]c4ccccc34)NC2=O)cc1 [Example 156] (cyclo([AEF](Ac)W[Phe(4-COOH)]G[Pro(4R-NH2)][Trp(βS-Me,4-F)]D[dNMeA]G[Bip(4'-COOH)][4Pal]L[dA][hTyr])) |
